Test results taken from patent US9765087B2, “Benzimidazole derivatives” (ENANTA PHARMACEUTICALS, INC., priority 2009, dated 2017).

Test system: HCV 1a genotype replicon
Test: HCV replicon assay (qRT-PCR or luciferase), genotype 1a
Type: cell-based
Conditions: Hepatitis C virus, Table 12, numeric values, read-out: 1a EC50
Procedure: HCV replicon cell lines (kindly provided by R. Bartenschlager) isolated from colonies as described by Lohman et. al. (Lohman et al. (1999) Science 285: 110-113, expressly incorporated by reference in its entirety) and used for all experiments. The HCV replicon has the nucleic acid sequence set forth in EMBL Accession No.: AJ242651, the coding sequence of which is from nucleotides 1801 to 8406.
These cell lines were maintained at 37° C., 5% CO2, 100% relative humidity in DMEM (Cat#11965-084, Invitrogen), with 10% fetal calf serum (“FCS”, Invitrogen), 1% non-essential amino acids (Invitrogen), 1% of Glutamax (Invitrogen), 1% of 100× penicillin/streptomycin (Cat#15140-122, Invitrogen) and Geneticin (Cat#10131-027, Invitrogen) at 0.75 mg/ml or 0.5 mg/ml for 11-7 and Huh-luc/neo-ET cells, respectively.
EC50 values of single agent compounds and combinations were determined by HCV RNA detection using quantitative RT-PCR, according to the manufacturer's instructions, with a TAQMAN® One-Step RT-PCR Master Mix Reagents Kit (Cat#AB 4309169, Applied Biosystems) on an ABI Model 7500 thermocycler. The TaqMan primers used for detecting and quantifying HCV RNA were obtained from Integrated DNA Technologies. HCV RNA was normalized to GAPDH RNA levels in drug-treated cells, which is detected and quantified using the Human GAPDH Endogenous Control Mix (Applied Biosystems, AB 4310884E). Total cellular RNA is purified from 96-well plates using the RNAqueous 96 kit (Ambion, Cat# AM1812). Chemical agent cytotoxicity is evaluated using an MTS assay according to the manufacturer's directions (Promega).
Since clinical drug resistance often develops in viral infections following single agent therapies, there is a need to assess the additive, antagonistic, or synergistic properties of combination therapies. We used the HCV replicon system to assess the potential use of the compound of the present invention or in combination therapies with Interferon alpha, cyclosporine analogs and inhibitors targeting other HCV proteins. The acute effects of a single or combinations of drugs are studied in the “Huh-luc/neo-ET” replicon with each chemical agent titrated in an X or Y direction in a 6 point two-fold dilution curve centered around the EC50 of each drug. Briefly, replicon cells are seeded at 7,000 cells per well in 90 ul DMEM (without phenol red, Invitrogen Cat.#31053-036) per well with 10% FCS, 1% non-essential amino acids, 1% of Glutamax and 1% of 100× penicillin/streptomycin and incubated overnight at 37° C., 5% CO2, 100% relative humidity. 16-20 h after seeding cells, test compounds previously solubilized and titrated in dimethyl sulfoxide (“DMSO”) from each X plate and Y plate are diluted 1:100 in DMEM (without phenol red, Invitrogen Cat.#31053-036) with 10% FCS, 1% non-essential amino acids, 1% of Glutamax and 1% of 100× penicillin/streptomycin and added directly to the 96-well plate containing cells and growth medium at a 1:10 dilution for a final dilution of compound and DMSO of 1:1000 ([…] final concentration). Drug treated cells are incubated at 37° C., 5% CO2, 100% relative humidity for 72 hours before performing a luciferase assay using 100 ul per well BriteLite Plus (Perkin Elmer) according to the manufacturer's instructions. Data analysis utilizes the method published by Prichard and Shipman (Antiviral Research, 1990. 14:181-205). Using this method, the combination data are analyzed for antagonistic, additive, or synergistic combination effects across the entire combination surface created by the diluted compounds in combination.
The compounds of the present invention can be effective against the HCV 1b genotype. It should also be understood that the compounds of the present invention can inhibit multiple genotypes of HCV. In one embodiment compound of the present invention are active against the 1a, 1b, 2a, 2b, 3a, 4a, and 5a genotypes. […] EC50 ranges against HCV 1b and 1a are as follows: A>10 nM; B1-10 nM; C<1 nM.

| Structure (SMILES) | EC50 [nM] |
| --- | --- |
| COC(=O)N[C@@H](CC(N)=O)C(=O)N1CCC[C@H]1c1ncc(-c2ccc(C#Cc3ccc4nc([C@@H]5CC6(CC6)CN5C(=O)[C@@H](NC(=O)OC)C(C)C)[nH]c4c3)cc2)[nH]1 [Example 619] | 0.699 |
| CC[C@H](NC(=O)OC)C(=O)N1CC2(CC2)C[C@H]1c1ncc(-c2ccc(C#Cc3ccc4nc([C@@H]5CC6(CC6)CN5C(=O)[C@H](CC)NC(=O)OC)[nH]c4c3)cc2)[nH]1 [Example 655] | 0.034 |
| COC(=O)N[C@H](C(=O)N1CC2(CC2)C[C@H]1c1ncc(-c2ccc(C#Cc3ccc4nc([C@@H]5CC6(CC6)CN5C(=O)[C@H](NC(=O)OC)c5ccc(Cl)cc5)[nH]c4c3)cc2)[nH]1)C(C)C [Example 650] | 0.079 |

Same assay, conditions: Hepatitis C virus, Table 12, range class, read-out: 1a EC50 Range

| Structure (SMILES) | EC50 [nM] |
| --- | --- |
| CC[C@H](C)[C@H](NC(=O)OC)C(=O)N1CCC[C@H]1c1ncc(-c2ccc(C#Cc3ccc4nc([C@@H]5CC6(CC6)CN5C(=O)[C@@H](NC(=O)OC)C(C)C)[nH]c4c3)cc2)[nH]1 [Example 673] | < 1 |
| COC(=O)N[C@@H](C(=O)N1CC2(CC2)C[C@H]1c1ncc(-c2ccc(C#Cc3ccc4nc([C@@H]5CC6(CC6)CN5C(=O)[C@H](NC(=O)OC)c5cccs5)[nH]c4c3)cc2)[nH]1)c1cccs1 [Example 680] | > 10 |
| CC[C@H](C)[C@H](NC(=O)OC)C(=O)N1CC2(CC2)C[C@H]1c1ncc(-c2ccc(C#Cc3ccc4nc([C@@H]5CC6(CC6)CN5C(=O)[C@@H](NC(=O)OC)C(C)C)[nH]c4c3)cc2)[nH]1 [Example 674] | < 1 |
| COC(=O)N[C@H](C(=O)N1CC2(CC2)C[C@H]1c1nc(-c2ccc(C#Cc3ccc4[nH]c([C@@H]5CC6(CC6)CN5C(=O)[C@@H](NC(=O)OC)C(C)C)nc4c3)cc2)c(-c2ccncc2)[nH]1)C(C)C [Example 593] | < 1 |
| COC(=O)N[C@H](C(=O)N1CC2(CC2)C[C@H]1c1ncc(-c2ccc(C#Cc3ccc4nc([C@@H]5CC6(CC6)CN5C(=O)[C@H](NC(=O)OC)c5ccccc5Cl)[nH]c4c3)cc2)[nH]1)C(C)C [Example 651] | < 1 |
| COC(=O)N[C@@H](CCCCNC(N)=O)C(=O)N1CCC[C@H]1c1nc(-c2ccc(C#Cc3ccc4[nH]c([C@@H]5CC6(CC6)CN5C(=O)[C@@H](NC(=O)OC)C(C)C)nc4c3)cc2)c[nH]1 [Example 620] | < 1 |
| COC(=O)N[C@H](C(=O)N1CCC[C@H]1c1ncc(-c2ccc(C#Cc3ccc4nc([C@@H]5CC6(CC6)CN5C(=O)[C@@H](NC(=O)OC)C(C)C)[nH]c4c3)cc2)[nH]1)c1ccccc1 [Example 595] | < 1 |
| COC(=O)N[C@H](C(=O)N1CC2(CC2)C[C@H]1c1nc2ccc(C#Cc3ccc(-c4cnc([C@@H]5CCCN5C(=O)[C@@H](NC(=O)OC)[C@@H](C)OC)[nH]4)cc3)cc2[nH]1)C(C)C [Example 598] | < 1 |
| COC(=O)N[C@@H](C(=O)N1CC2(CC2)C[C@H]1c1ncc(-c2ccc(C#Cc3ccc4nc([C@@H]5CC6(CC6)CN5C(=O)[C@H](NC(=O)OC)c5cccc(F)c5)[nH]c4c3)cc2)[nH]1)c1cccc(F)c1 [Example 677] | 1 to 10 |
| COC(=O)N[C@H](C(=O)N1CC2(CC2)C[C@H]1c1ncc(-c2ccc(C#Cc3ccc4nc([C@@H]5C[C@H]6C[C@H]6N5C(=O)[C@H](NC(=O)OC)c5ccccc5)[nH]c4c3)cc2)[nH]1)C(C)C [Example 586] | < 1 |
| COC(=O)N[C@H](C(=O)N1C[C@@H]2C[C@@H]2[C@H]1c1nc2cc(C#Cc3ccc(-c4c[nH]c([C@@H]5CCCN5C(=O)[C@@H](NC(=O)OC)C(C)C)n4)cc3)ccc2[nH]1)C(C)C [Example 690] | 1 to 10 |
| COC(=O)N[C@H](C(=O)N1CC2(CC2)C[C@H]1c1nc2ccc(C#Cc3ccc(-c4cnc([C@@H]5C[C@H]6C[C@H]6N5C(=O)[C@H](NC(=O)OC)c5cc(F)cc(F)c5)[nH]4)cc3)cc2[nH]1)C(C)C [Example 683] | < 1 |
| CC[C@@H](C)[C@H](NC(=O)OC)C(=O)N1CCC[C@H]1c1ncc(-c2ccc(C#Cc3ccc4nc([C@@H]5CC6(CC6)CN5C(=O)[C@@H](NC(=O)OC)C(C)C)[nH]c4c3)cc2)[nH]1 [Example 605] | < 1 |
| COC(=O)N[C@H](C(=O)N1CC2(CC2)C[C@H]1c1nc2ccc(C#Cc3ccc(-c4cnc([C@@H]5CCCN5C(=O)[C@H](NC(=O)OC)[C@H](C)c5ccccc5)[nH]4)cc3)cc2[nH]1)C(C)C [Example 604] | > 10 |
| COC(=O)N[C@H](C(=O)N1CC2(CC2)C[C@H]1c1nc2ccc(C#Cc3ccc(-c4cnc([C@@H]5CC6(CC6)CN5C(=O)[C@@H](NC(=O)OC)C(C)C)[nH]4)cc3)cc2[nH]1)c1ccccc1 [Example 592] | < 1 |
| COC(=O)N[C@H](C(=O)N1CC2(CC2)C[C@H]1c1ncc(-c2ccc(C#Cc3ccc4nc([C@@H]5CC6(CC6)CN5C(=O)[C@@H](NC(=O)OC)c5ccccc5)[nH]c4c3)cc2)[nH]1)c1ccccc1 [Example 609] | 1 to 10 |
| COC(=O)N[C@H](C(=O)N1CC2(CC2)C[C@H]1c1ncc(-c2ccc(C#Cc3ccc4nc([C@@H]5CC6(CC6)CN5C(=O)[C@@H](NC(=O)OC)C5CC5)[nH]c4c3)cc2)[nH]1)C(C)C [Example 602] | < 1 |
| COC(=O)N[C@H](C(=O)N1CC2(CC2)C[C@H]1c1nc2ccc(C#Cc3ccc(-c4cnc([C@@H]5C[C@@H](C)CN5C(=O)[C@@H](NC(=O)OC)C5CCOCC5)[nH]4)cc3)cc2[nH]1)C(C)C [Example 603] | < 1 |
| COC(=O)N[C@H](C(=O)N1CC2(CC2)C[C@H]1c1ncc(-c2ccc(C#Cc3ccc4nc([C@@H]5CC6(CC6)CN5C(=O)[C@H](NC(=O)OC)c5cccc(F)c5)[nH]c4c3)cc2)[nH]1)C(C)C [Example 653] | < 1 |
| COCC(COC)[C@H](NC(=O)OC)C(=O)N1CC2(CC2)C[C@H]1c1nc2ccc(C#Cc3ccc(-c4cnc([C@@H]5CC6(CC6)CN5C(=O)[C@@H](NC(=O)OC)C(C)C)[nH]4)cc3)cc2[nH]1 [Example 670] | < 1 |
| COC(=O)N[C@H](C(=O)N1CC2(CC2)C[C@H]1c1nc(-c2ccc(C#Cc3ccc4[nH]c([C@@H]5CC6(CC6)CN5C(=O)[C@@H](NC(=O)OC)C(C)C)nc4c3)cc2)c(Br)[nH]1)C(C)C [Example 657] | < 1 |
| COC(=O)N[C@H](C(=O)N1CC2(CC2)C[C@H]1c1nc2ccc(C#Cc3ccc(-c4cnc([C@@H]5CC6(CC6)CN5C(=O)[C@@H](NC(=O)OC)C5CCOCC5)[nH]4)cc3)cc2[nH]1)C(C)C [Example 658] | < 1 |
| COC(=O)N[C@H](C(=O)N1CC2(CC2)C[C@H]1c1nc2ccc(C#Cc3ccc(-c4cnc([C@@H]5CC6(CC6)CN5C(=O)[C@@H](N)C(C)C)[nH]4)cc3)cc2[nH]1)C(C)C [Example 624] | > 10 |
| COC(=O)N[C@H](C(=O)N1CC2(CC2)C[C@H]1c1nc(-c2ccc(C#Cc3ccc4[nH]c([C@@H]5CC6(CC6)CN5C(=O)[C@@H](NC(=O)OC)C(C)C)nc4c3)cc2)c(F)[nH]1)C(C)C [Example 660] | < 1 |
| COC(=O)N[C@H](C(=O)N1CCC[C@H]1c1nc(-c2ccc3cc(-c4ccc5[nH]c([C@@H]6CC7(CC7)CN6C(=O)[C@@H](NC(=O)OC)C(C)C)nc5c4)cc(F)c3c2)c[nH]1)C(C)C [Example 608] | < 1 |
| COC(=O)N[C@H](C(=O)N1CC2(CC2)C[C@H]1c1nc2ccc(C#Cc3ccc(-c4cnc([C@@H]5CCCN5C(=O)[C@@H](NC(=O)OC)C5CCCCC5)[nH]4)cc3)cc2[nH]1)C(C)C [Example 607] | < 1 |

Same assay, conditions: Hepatitis C virus, read-out: 1a EC50 Range, Table 12, range class

| Structure (SMILES) | EC50 [nM] |
| --- | --- |
| COC(=O)N[C@H](C(=O)N1C[C@]2(CNC(=O)O2)C[C@H]1c1ncc(-c2ccc(C#Cc3ccc4nc([C@@H]5CC6(CC6)CN5C(=O)[C@@H](NC(=O)OC)C(C)C)[nH]c4c3)cc2)[nH]1)C(C)C [Example 617] | 1 to 10 |
